What is called melting point is the temperature, or range, at which the solid turns liquid.

The molecule `CN1CCN(C(=NS(=O)(=O)c2ccc(Cl)cc2)N2CC(c3cccc(C(F)(F)F)c3)C(c3ccc(Cl)cc3)=N2)CC1` (stereo not drawn) [Example 86, N-[(3-(4-chlorophenyl)-4-(3-(trifluoromethyl)phenyl)-4,5-dihydro-1H-pyrazol-1-yl)(4-methylpiperazin-1-yl)methylene]-4-chlorobenzenesulfonamide] had a melting point of 97 to 100 °C.
Next, `O=S(=O)(N=C(NN1CCCCC1)N1CC(c2ccccc2)C(c2ccc(Cl)cc2)=N1)c1ccc(Cl)cc1` (stereo not drawn) [Example 1, 3-(4-Chlorophenyl)-N′-((4-chlorophenyl)sulfonyl)-N-(piperidin-1-yl)-4-phenyl-4,5-dihydro-1H-pyrazole-1-carboxamidine]: 213 to 214 °C.
Next, `O=S(=O)(N=C(NCCF)N1CC(c2c(F)cccc2F)C(c2ccc(Cl)cc2)=N1)c1ccc(Cl)cc1` (stereo not drawn) [Example 51, 3-(4-Chlorophenyl)-N′-((4-chlorophenyl)sulfonyl)-N-(2-fluoroethyl)-4-(2,6-difluorophenyl)-4,5-dihydro-1H-pyrazole-1-carboxamidine]: 153 to 155 °C; `CONC(=NS(=O)(=O)c1ccc(Cl)cc1)N1CC(c2ccccc2)C(c2ccc(Cl)s2)=N1` (stereo not drawn) [Example 47, 3-(5-Chlorothien-2-yl)-N′-((4-chlorophenyl)sulfonyl)-N-methoxy-4-phenyl-4,5-dihydro-1H-pyrazole-1-carboxamidine]: 180 to 181 °C; `CONC(=NS(=O)(=O)c1cc(F)c(F)cc1F)N1CC(c2ccccc2)C(c2ccc(Cl)cc2)=N1` (stereo not drawn): 160 to 162 °C.
`CONC(=NS(=O)(=O)c1ccc(C(F)(F)F)cc1)N1CC(c2ccccc2F)C(c2ccc(Cl)cc2)=N1` (stereo not drawn) showed a melting point of 147 to 149 °C.
The result for `CONC(=NS(=O)(=O)c1ccc(Cl)cc1)N1CC(c2ccccc2)C(c2ccc(F)cc2)=N1` (stereo not drawn) reads 201 to 203 °C; that for `O=S(=O)(N=C(NCCF)N1CC(c2cccc(F)c2)C(c2ccc(Cl)cc2)=N1)c1ccc(Cl)cc1` (stereo not drawn), 130 °C.
For `CONC(=NS(=O)(=O)c1ccc(Cl)cc1)N1CC(c2c(F)cccc2F)C(c2ccc(Cl)cc2)=N1` (stereo not drawn), the melting point was in the range of 174 to 177 °C.
The result for `CONC(=NS(=O)(=O)c1ccc(Cl)cc1)N1CC(c2ccccc2F)C(c2ccc(Cl)cc2)=N1` (stereo not drawn) [Example 56, 3-(4-Chlorophenyl)-N′-((4-chlorophenyl)sulfonyl)-4-(2-fluorophenyl)-N-(methoxy)-4,5-dihydro-1H-pyrazole-1-carboxamidine] reads 162 to 164 °C; that for `O=S(=O)(N=C(NCCF)N1CC(c2cccc(F)c2)C(c2ccc(Cl)cc2)=N1)c1ccc(C(F)(F)F)cc1` (stereo not drawn) [Example 53, 3-(4-Chlorophenyl)-N-(2-fluoroethyl)-4-(3-fluorophenyl)-N′-((4-(trifluoromethyl)phenyl)sulfonyl)-4,5-dihydro-1H-pyrazole-1-carboxamidine], 155 °C; that for `CONC(=NS(=O)(=O)c1ccc(Cl)cc1)N1CC(c2cccc(C(F)(F)F)c2)C(c2ccc(Cl)cc2)=N1` (stereo not drawn) [Example 49, 3-(4-Chlorophenyl)-N′-((4-chlorophenyl)sulfonyl)-N-methoxy-4-(3-(trifluoromethyl)phenyl)-4,5-dihydro-1H-pyrazole-1-carboxamidine], 80 to 83 °C.
For `CONC(=NS(=O)(=O)c1cccc(C)c1)N1CC(c2ccccc2)C(c2ccc(Cl)cc2)=N1` (stereo not drawn), the melting point is 151 to 152 °C.
Next, `CONC(=NS(=O)(=O)c1ccc(C(F)(F)F)cc1)N1CC(c2cccc(F)c2)C(c2ccc(Cl)cc2)=N1` (stereo not drawn): above 260 °C.
Next, `CONC(=NS(=O)(=O)c1ccccc1C)N1CC(c2ccccc2)C(c2ccc(Cl)cc2)=N1` (stereo not drawn): 145 to 146 °C.

The values above are taken from patent US7528162B2, “4,5-dihydro-1H-pyrazole derivatives having CB1-antagonistic activity” (Solvay Pharmaceuticals, B.V., priority 2001, dated 2009).
